Results from patent US20240050432A1 (Infinity Pharmaceuticals, Inc., priority 2020, published 2024).
Read-outs that look alike come from different tables or passages of the source.

Tests used:
Type in all cases: in vivo, human
[1] = Hepatic TEAEs by eganelisib dose in combination with nivolumab (phase 1 Part C, phase 2)
[2] = Eganelisib exposures (Cmax, AUC0-24 hrs) with combination therapies, 3 clinical studies; conditions: for observed highest individual concentration value: PK cutoff June-July 2020; for Cmax / AUC(0-t): human, in vivo
PD-L1 = test: Paired tumor biopsies in TNBC phase II study: PD-L1 expression; conditions: 11 paired tumor biopsies; triplet regimen
[3] = 30 mg QD, C1D1, model-predicted
[4] = 30 mg QD, C2D1, model-predicted
[5] = 40 mg QD, C1D1, model-predicted
[6] = 40 mg QD, C2D1, model-predicted

Q: With `C[C@H](NC(=O)c1c(N)nn2cccnc12)c1cc2cccc(C#Cc3cnn(C)c3)c2c(=O)n1-c1ccccc1` [Compound 1, eganelisib] as the compound, how does the “subjects with Grade 3 hepatic TEAE” value ([1]; eganelisib 30 mg QD with nivolumab 480 mg Q4W) read?
A: The value was less than 20%.

Q: And the “subjects with Hepatic TEAEs” value ([1]; eganelisib 40 mg QD with nivolumab 480 mg Q4W)?
A: The value was greater than 20%.

Q: What about the “Cmax, Max” value [2, 3] of the same compound?
A: Its value is 1750 ng/mL.

Q: And the “Cmax, Min” value [2, 3]?
A: The value was 637 ng/mL.

Q: What about the “Cmax, Max” value [2, 4] of the same compound?
A: Its value is 4070 ng/mL.

Q: What about the “Cmax, Min” value [2, 4] of the same compound?
A: Its value is 684 ng/mL.

Q: And the “observed highest individual concentration value” ([2]; 30 mg QD, across all 3 studies)?
A: Its value is 4.42 µg/mL.

Q: What about the “Cmax, Max” value [2, 5] of the same compound?
A: Its value is 3630 ng/mL.

Q: And the “Cmax, Min” value [2, 5]?
A: Its value is 346 ng/mL.

Q: And the “Cmax, Max” value [2, 6]?
A: Its value is 8830 ng/mL.

Q: And the “Cmax, Min” value [2, 6]?
A: Its value is 480 ng/mL.

Q: And the “observed highest individual concentration value” ([2]; 40 mg QD, across all 3 studies)?
A: The value was 11.4 µg/mL.

Q: And the “observed highest individual concentration lower for 30 mg QD versus 40 mg QD” value ([2]; across all 3 studies)?
A: Its value is 61%.

Q: What about the Cmax ([2]; 30 mg QD, C1D1, model-predicted, read-out: Cmax, Mean) of the same compound?
A: Its Cmax is 1020 ng/mL.

Q: What about the Cmax ([2]; 30 mg QD, C1D1, model-predicted, read-out: Cmax, Median) of the same compound?
A: The Cmax was 978 ng/mL.

Q: What about the AUC(0-t) ([2]; 30 mg QD, C2D1, model-predicted, read-out: AUC0-24 hrs, GeoMean) of the same compound?
A: Its AUC(0-t) is 29200 ng·h/mL.

Q: And the AUC(0-t) ([2]; 30 mg QD, C2D1, model-predicted, read-out: AUC0-24 hrs, Mean)?
A: The AUC(0-t) was 33600 ng·h/mL.

Q: And the AUC(0-t) ([2]; 30 mg QD, C2D1, model-predicted, read-out: AUC0-24 hrs, Median)?
A: The AUC(0-t) was 25800 ng·h/mL.

Q: What about the Cmax ([2]; 30 mg QD, C2D1, model-predicted, read-out: Cmax, GeoMean) of the same compound?
A: Its Cmax is 1680 ng/mL.

Q: And the Cmax ([2]; 30 mg QD, C2D1, model-predicted, read-out: Cmax, Median)?
A: Its Cmax is 1530 ng/mL.

Q: What about the AUC(0-t) ([2]; 40 mg, 40 mg QD, C1D1, model-predicted, read-out: AUC0-24 hrs, GeoMean) of the same compound?
A: Its AUC(0-t) is 26200 ng·h/mL.

Q: And the AUC(0-t) ([2]; 40 mg, 40 mg QD, C1D1, model-predicted, read-out: AUC0-24 hrs, Mean)?
A: The AUC(0-t) was 28400 ng·h/mL.

Q: What about the AUC(0-t) ([2]; 40 mg, 40 mg QD, C1D1, model-predicted, read-out: AUC0-24 hrs, Median) of the same compound?
A: Its AUC(0-t) is 26000 ng·h/mL.

Q: And the Cmax ([2]; 40 mg, 40 mg QD, C1D1, model-predicted, read-out: Cmax, GeoMean)?
A: Its Cmax is 1550 ng/mL.

Q: What about the Cmax ([2]; 40 mg, 40 mg QD, C1D1, model-predicted, read-out: Cmax, Mean) of the same compound?
A: The Cmax was 1650 ng/mL.

Q: And the Cmax ([2]; 40 mg, 40 mg QD, C1D1, model-predicted, read-out: Cmax, Median)?
A: Its Cmax is 1560 ng/mL.

Q: What about the AUC(0-t) ([2]; 40 mg, 40 mg QD, C2D1, model-predicted, read-out: AUC0-24 hrs, GeoMean) of the same compound?
A: Its AUC(0-t) is 42100 ng·h/mL.

Q: And the AUC(0-t) ([2]; 40 mg, 40 mg QD, C2D1, model-predicted, read-out: AUC0-24 hrs, Mean)?
A: The AUC(0-t) was 49600 ng·h/mL.

Q: And the AUC(0-t) ([2]; 40 mg, 40 mg QD, C2D1, model-predicted, read-out: AUC0-24 hrs, Median)?
A: Its AUC(0-t) is 41400 ng·h/mL.

Q: And the Cmax ([2]; 40 mg, 40 mg QD, C2D1, model-predicted, read-out: Cmax, GeoMean)?
A: The Cmax was 2470 ng/mL.

Q: And the Cmax ([2]; 40 mg, 40 mg QD, C2D1, model-predicted, read-out: Cmax, Mean)?
A: Its Cmax is 2770 ng/mL.

Q: And the Cmax ([2]; 40 mg, 40 mg QD, C2D1, model-predicted, read-out: Cmax, Median)?
A: Its Cmax is 2420 ng/mL.

Q: What about the AUC(0-t) ([2]; oral, 30 mg QD, C1D1, model-predicted, read-out: AUC0-24 hrs, GeoMean) of the same compound?
A: The AUC(0-t) was 16100 ng·h/mL.

Q: What about the AUC(0-t) ([2]; oral, 30 mg QD, C1D1, model-predicted, read-out: AUC0-24 hrs, Mean) of the same compound?
A: The AUC(0-t) was 16700 ng·h/mL.

Q: And the AUC(0-t) ([2]; oral, 30 mg QD, C1D1, model-predicted, read-out: AUC0-24 hrs, Median)?
A: Its AUC(0-t) is 15900 ng·h/mL.

Q: And the Cmax ([2]; oral, 30 mg QD, C1D1, model-predicted, read-out: Cmax, GeoMean)?
A: Its Cmax is 993 ng/mL.

Q: What about the Cmax ([2]; oral, 30 mg QD, C2D1, model-predicted, read-out: Cmax, Mean) of the same compound?
A: Its Cmax is 1860 ng/mL.

Q: And the “change of PD-L1 status/expression in paired tumor biopsies” value (PD-L1)?
A: The value was “on-mechanism conversion of patients from PD-L1(−) to PD-L1(+) and increase in PD-L1 expression in PD-L1(+) patients”.
